In patent publication US7235379B2, “Method and medium for the detection/identification of microorgranisms with esterase activity” (Bio Merieux, priority 2000, dated 2007):
Where “and” joins values, the source holds several entries; their conditions need not be identical. Identical values can stand only once. Counter-ions that a name gives are not always drawn. Like-named read-outs stand apart in the source and are kept apart here.

Legend:
[1] = tested on: Salmonella typhimurium 010; assay: Ex.1 colony coloration, 5-bromo-3-indolyl nonanoate, DMSO/Tween 20, MacConkey; format: cell-based
Salmonella typhi 118 = tested on: Salmonella typhi 118
Protocol: The esterase substrate tested is 5-bromo-3-indolyl nonanoate. A 40 g/l stock solution of substrate is prepared in a mixture of 40% dimethyl sulfoxide and 60% Tween 20. A sufficient volume is added to a supercooled MacConkey medium (without neutral red) to give a substrate concentration of 500 mg/l.
(§1) Microorganisms originating from the Applicant's collection were inoculated onto this medium from a 0.5 McFarland suspension by isolation in three quadrants. The dishes were incubated at 37° C. for 48 hours. The colonies formed were examined visually after 24 and 48 hours of incubation. The coloration of these colonies and the intensity of this coloration were noted.
(§2) Note: In the above Examples, the numbers following the strains correspond to the number of each strain referenced in the Applicant's collection. The intensity of coloration corresponds to an arbitrary scale defined as follows: […]

Enterobacter cloacae 086 = assay: Ex.1 colony coloration, 5-bromo-3-indolyl nonanoate, DMSO/Tween 20, MacConkey; format: cell-based; on intensity of coloration: key: 0: no activity; 0.1: trace of coloration; 0.5: very pale coloration; 1: distinct coloration of low intensity; 2: clear coloration of medium intensity; 3: intense coloration; 4: very intense coloration
Serratia marcescens 038 [2] = assay: as above; format: cell-based
Serratia marcescens 038 [3] = assay: Ex.2 colony coloration, 5-bromo-3-indolyl nonanoate, methanol/bile salts, MacConkey; format: cell-based; on intensity of coloration: key: 0: no activity; 0.1: trace of coloration; 0.5: very pale coloration; 1: distinct coloration of low intensity; 2: clear coloration of medium intensity; 3: intense coloration; 4: very intense coloration
[4] = tested on: Acinetobacter calcoaceticus 034; assay: as above; format: cell-based; on intensity of coloration: key: 0: no activity; 0.1: trace of coloration; 0.5: very pale coloration; 1: distinct coloration of low intensity; 2: clear coloration of medium intensity; 3: intense coloration; 4: very intense coloration
[5] = tested on: Salmonella paratyphi A 006
Protocol: (§3) The esterase substrate tested is 5-bromo-4-chloro-3-indolyl nonanoate. A 40 g/l stock solution of substrate is prepared in a mixture of 40% dimethyl sulfoxide and 60% Tween 20. A sufficient volume is added to a supercooled MacConkey medium (without neutral red) to give a substrate concentration of 250 mg/l.
as §1, §2

Salmonella spp. 017 = tested on: Salmonella spp. 017
Protocol: as §3, §1, §2

[6] = tested on: Pseudomonas aeruginosa 165; assay: Ex.3 colony coloration, 5-bromo-4-chloro-3-indolyl nonanoate 250 mg/l, DMSO/Tween 20; format: cell-based; further: key: 0: no activity; 0.1: trace of coloration; 0.5: very pale coloration; 1: distinct coloration of low intensity; 2: clear coloration of medium intensity; 3: intense coloration; 4: very intense coloration
[7] = tested on: Salmonella enteritidis 006; assay: Ex.4 colony coloration, 5-bromo-3-indolyl nonanoate, DMSO/Tween 20, MacConkey; format: cell-based; conditions: 8 ml/l Tergitol 4
[8] = tested on: bacterial strains exhibiting an esterase activity; conditions: between 2 and 16 ml/l, more precisely between 4 and 8 ml/l
Protocol: The esterase substrate tested is 5-bromo-3-indolyl nonanoate. A 25 g/l stock solution of substrate is prepared in methanol to which 5 g/l of bile salts have been added. A sufficient volume is added to a supercooled MacConkey medium (without neutral red) to give a substrate concentration of 500 mg/l.
as §1

For CCCCC(CC)CCC(CC(C)C)OS(=O)(=O)O (stereo not drawn) [Tergitol 4, 7-ethyl-2-methyl-4-undecanoate hydrogensulfate or its sodium salt], the color ([1]; 2 ml/l, 24 h) was “gray”, the intensity of coloration ([1]; 2 ml/l, 24 h) was 2 and the color ([1]; 2 ml/l, 48 h) was “gray”. The intensity of coloration ([1]; 2 ml/l, 48 h) was 2.5, the color ([1]; 4 ml/l, 24 h) was “gray” and the intensity of coloration ([1]; 4 ml/l, 24 h) was 3. The color ([1]; 4 ml/l, 48 h) was “gray”, the intensity of coloration ([1]; 4 ml/l, 48 h) was 3 and the color ([1]; 8 ml/l, 24 h) was “gray”. For the same compound, the intensity of coloration ([1]; 8 ml/l, 24 h) was 3.5, the color ([1]; 8 ml/l, 48 h) was “gray” and the intensity of coloration ([1]; 8 ml/l, 48 h) was 3.5. For the same compound, the color ([1]; 16 ml/l, 24 h) was “gray”, the intensity of coloration ([1]; 16 ml/l, 24 h) was 3.5 and the color ([1]; 16 ml/l, 48 h) was “gray”. The intensity of coloration ([1]; 16 ml/l, 48 h) was 4, the color (Salmonella typhi 118) was “gray” and the intensity of coloration (Salmonella typhi 118; sodium salt) was 3 and 2 and 3.5. The color (Enterobacter cloacae 086; 2 ml/l, 24 h) was “gray”, the intensity of coloration (Enterobacter cloacae 086; 2 ml/l, 24 h) was 0.5 and the color (Enterobacter cloacae 086; 2 ml/l, 48 h) was “gray”. The intensity of coloration (Enterobacter cloacae 086; 2 ml/l, 48 h) was 2, the color (Enterobacter cloacae 086; 4 ml/l, 24 h) was “gray” and the intensity of coloration (Enterobacter cloacae 086; 4 ml/l, 24 h) was 1. For the same compound, the color (Enterobacter cloacae 086; 4 ml/l, 48 h) was “gray”, the intensity of coloration (Enterobacter cloacae 086; 4 ml/l, 48 h) was 3 and the color (Enterobacter cloacae 086; 8 ml/l, 24 h) was “gray”. For the same compound, the intensity of coloration (Enterobacter cloacae 086; 8 ml/l, 24 h) was 0.5, the color (Enterobacter cloacae 086; 8 ml/l, 48 h) was “gray” and the intensity of coloration (Enterobacter cloacae 086; 8 ml/l, 48 h) was 1. For the same compound, the color (Enterobacter cloacae 086; 16 ml/l, 24 h) was “gray”, the intensity of coloration (Enterobacter cloacae 086; 16 ml/l, 24 h) was 0.5 and the color (Enterobacter cloacae 086; 16 ml/l, 48 h) was “gray”. For the same compound, the intensity of coloration (Enterobacter cloacae 086; 16 ml/l, 48 h) was 1, the color (Serratia marcescens 038 [2]; 2 ml/l, 24 h) was “gray” and the intensity of coloration (Serratia marcescens 038 [2]; 2 ml/l, 24 h) was 2. The color (Serratia marcescens 038 [2]; 2 ml/l, 48 h) was “gray”, the intensity of coloration (Serratia marcescens 038 [2]; 2 ml/l, 48 h) was 3 and the color (Serratia marcescens 038 [2]; 4 ml/l, 24 h) was “gray”. The intensity of coloration (Serratia marcescens 038 [2]; 4 ml/l, 24 h) was 2, the color (Serratia marcescens 038 [2]; 4 ml/l, 48 h) was “gray” and the intensity of coloration (Serratia marcescens 038 [2]; 4 ml/l, 48 h) was 4. For the same compound, the color (Serratia marcescens 038 [2]; 8 ml/l, 24 h) was “gray”, the intensity of coloration (Serratia marcescens 038 [2]; 8 ml/l, 24 h) was 2 and the color (Serratia marcescens 038 [2]; 8 ml/l, 48 h) was “gray”. The intensity of coloration (Serratia marcescens 038 [2]; 8 ml/l, 48 h) was 4, the color (Serratia marcescens 038 [2]; 16 ml/l, 24 h) was “gray” and the intensity of coloration (Serratia marcescens 038 [2]; 16 ml/l, 24 h) was 2. The color (Serratia marcescens 038 [2]; 16 ml/l, 48 h) was “gray”, the intensity of coloration (Serratia marcescens 038 [2]; 16 ml/l, 48 h) was 4 and the color (Serratia marcescens 038 [3]; 2 ml/l, 24 h) was “gray”. For the same compound, the intensity of coloration (Serratia marcescens 038 [3]; 2 ml/l, 24 h) was 2, the color (Serratia marcescens 038 [3]; 2 ml/l, 48 h) was “gray” and the intensity of coloration (Serratia marcescens 038 [3]; 2 ml/l, 48 h) was 3. For the same compound, the color (Serratia marcescens 038 [3]; 4 ml/l, 24 h) was “gray”, the intensity of coloration (Serratia marcescens 038 [3]; 4 ml/l, 24 h) was 2 and the color (Serratia marcescens 038 [3]; 4 ml/l, 48 h) was “gray”. For the same compound, the intensity of coloration (Serratia marcescens 038 [3]; 4 ml/l, 48 h) was 4, the color (Serratia marcescens 038 [3]; 8 ml/l, 24 h) was “gray” and the intensity of coloration (Serratia marcescens 038 [3]; 8 ml/l, 24 h) was 2. The color (Serratia marcescens 038 [3]; 8 ml/l, 48 h) was “gray”, the intensity of coloration (Serratia marcescens 038 [3]; 8 ml/l, 48 h) was 4 and the color (Serratia marcescens 038 [3]; 16 ml/l, 24 h) was “gray”. For the same compound, the intensity of coloration (Serratia marcescens 038 [3]; 16 ml/l, 24 h) was 2, the color (Serratia marcescens 038 [3]; 16 ml/l, 48 h) was “gray” and the intensity of coloration (Serratia marcescens 038 [3]; 16 ml/l, 48 h) was 4. For the same compound, the color ([4]; 2 ml/l, 24 h) was “gray”, the intensity of coloration ([4]; 2 ml/l, 24 h) was 2 and the color ([4]; 2 ml/l, 48 h) was “gray”. The intensity of coloration ([4]; 2 ml/l, 48 h) was 3, the color ([4]; 4 ml/l, 24 h) was “gray” and the intensity of coloration ([4]; 4 ml/l, 24 h) was 3. For the same compound, the color ([4]; 4 ml/l, 48 h) was “gray”, the intensity of coloration ([4]; 4 ml/l, 48 h) was 3 and the color ([4]; 8 ml/l, 24 h) was “gray”. The intensity of coloration ([4]; 8 ml/l, 24 h) was 3, the color ([4]; 8 ml/l, 48 h) was “gray” and the intensity of coloration ([4]; 8 ml/l, 48 h) was 4. The color ([4]; 16 ml/l, 24 h) was “gray”, the intensity of coloration ([4]; 16 ml/l, 24 h) was 0.5 and the color ([4]; 16 ml/l, 48 h) was “gray”. For the same compound, the intensity of coloration ([4]; 16 ml/l, 48 h) was 0.5, the intensity of coloration ([5]; 0.001 ml/l, 24 h) was 0.1 and the intensity of coloration ([5]; 0.001 ml/l, 48 h) was 0.5. It also gave an intensity of coloration ([5]; 0.01 ml/l, 24 h) of 0.1, an intensity of coloration ([5]; 0.01 ml/l, 48 h) of 1 and an intensity of coloration ([5]; 0.1 ml/l, 24 h) of 0.1. The intensity of coloration ([5]; 0.1 ml/l, 48 h) was 0.5, the intensity of coloration ([5]; 1 ml/l (1st col), 24 h) was 0.5 and the intensity of coloration ([5]; 1 ml/l (1st col), 48 h) was 2. The intensity of coloration ([5]; 1 ml/l (2nd col), 24 h) was 0.5, the intensity of coloration ([5]; 1 ml/l (2nd col), 48 h) was 2 and the intensity of coloration (Salmonella spp. 017; 0.001 ml/l, 24 h) was 2. It also gave an intensity of coloration (Salmonella spp. 017; 0.001 ml/l, 48 h) of 3, an intensity of coloration (Salmonella spp. 017; 0.01 ml/l, 24 h) of 2 and an intensity of coloration (Salmonella spp. 017; 0.01 ml/l, 48 h) of 3. For the same compound, the intensity of coloration (Salmonella spp. 017; 0.1 ml/l, 24 h) was 2, the intensity of coloration (Salmonella spp. 017; 0.1 ml/l, 48 h) was 3 and the intensity of coloration (Salmonella spp. 017; 1 ml/l (1st col), 24 h) was 2. It also gave an intensity of coloration (Salmonella spp. 017; 1 ml/l (1st col), 48 h) of 3, an intensity of coloration (Salmonella spp. 017; 1 ml/l (2nd col), 24 h) of 2 and an intensity of coloration (Salmonella spp. 017; 1 ml/l (2nd col), 48 h) of 3. It also gave an intensity of coloration ([6]; 0.001 ml/l, 24 h) of 0.1, an intensity of coloration ([6]; 0.001 ml/l, 48 h) of 0.5 and an intensity of coloration ([6]; 0.01 ml/l, 24 h) of 0.5. For the same compound, the intensity of coloration ([6]; 0.01 ml/l, 48 h) was 1, the intensity of coloration ([6]; 0.1 ml/l, 24 h) was 0.1 and the intensity of coloration ([6]; 0.1 ml/l, 48 h) was 0.5. It also gave an intensity of coloration ([6]; 1 ml/l (1st col), 24 h) of 0.5, an intensity of coloration ([6]; 1 ml/l (1st col), 48 h) of 0.5 and an intensity of coloration ([6]; 1 ml/l (2nd col), 24 h) of 0.5. For the same compound, the intensity of coloration ([6]; 1 ml/l (2nd col), 48 h) was 1, the color ([7]; 24 h) was “gray” and the intensity of coloration ([7]; 24 h) was 3. The color ([7]; 48 h) was “gray”, the intensity of coloration ([7]; 48 h) was 3 and the “effect on intensity of coloration” value [8] was “significantly increases the intensity of coloration”.
